# Data taken from US11236068B2, “Fused ring compounds” (Genentech, Inc., priority 2018, dated 2022).
# Target: K-Ras G12C (Homo sapiens (Human), UniProt P01116, G12C)
# Assay: Western blot assay for in cell alkylation of K-Ras G12C (HCC1171 cells)
# Type: cell-based
# Details: 18 hours at 37° C., 7 point dose response
# Protocol: HCC1171 cells were maintained in RPMI1640 supplemented with 10% FBS. Cells were plated in a 96-well plate at 20,000 cells/well and the following day compounds were added to the cells. After 18 hours at 37° C., cells were lysed in RIPA buffer (Sigma RO278) with 0.5% SDS and protease/phosphatase inhibitor cocktail. After through mixing to enable complete lysis, the lysates were cleared by centrifugation before 20 µl was transferred from each well and combined with loading buffer and reducing agent. After heating for 10 minutes at 95° C., […] of each sample was loaded onto a 4-20% Tris-Glycine gel and electrophoresed at 110V for 165 minutes in SDS-PAGE running buffer. Gels were transferred to a nitrocellulose membrane, blocked for 1 hour and stained overnight at 4° C. with primary antibody against K-Ras (polyclonal Proteintech 12063-1-AP). The membrane was then washed thoroughly and counterstained with anti-rabbit IRDye 800CW (LI-COR 926-32211) for one hour at room temperature. After final washes, the membrane was imaged on a LI-COR Odyssey CLx at medium resolution. […] To quantify this affect, the LICOR software was used to draw a rectangle over alkylated and unalkylated bands for each well and measured the total fluorescent intensity (FI) in each of these bands. The following formula was then used to calculate % alkylation: FI(alkylated)/(FI(alkylated)+FI(unalkylated))*100 for each well.
# A 7 point dose response curve was used to determine the IC50 for each compound. Cell alkylation data are presented below in Table 3.
# K-Ras G12C, sequence (P01116 other isoform, or with tags, fused parts or gaps G12C): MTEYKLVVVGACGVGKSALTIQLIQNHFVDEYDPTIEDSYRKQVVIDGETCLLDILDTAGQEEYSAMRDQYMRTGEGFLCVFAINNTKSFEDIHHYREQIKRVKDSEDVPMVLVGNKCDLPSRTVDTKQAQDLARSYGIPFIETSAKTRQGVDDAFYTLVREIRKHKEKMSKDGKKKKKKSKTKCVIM
row,EC50 [nM],Structure (SMILES)
1,2900,"C=CC(=O)N1CCC(C#N)(c2ncnc3cc(-c4nc(N)cc(C)c4C(F)(F)F)c(Cl)cc23)CC1 [Example 22, 4-[7-[6-amino-4-methyl-3-(trifluoromethyl)-2-pyridyl]-6-chloro-quinazolin-4-yl]-1-prop-2-enoyl-piperidine-4-carbonitrile]"
2,910,"Cc1cc(N)nc(-c2cc3ncnc(N4CCN(C(=O)C5=CCC5)C(C#N)C4)c3cc2Cl)c1C(F)(F)F (stereo not shown) [Example 23, 4-[7-[6-amino-4-methyl-3-(trifluoromethyl)-2-pyridyl]-6-chloro-quinazolin-4-yl]-1-(cyclobutene-1-carbonyl)piperazine-2-carbonitrile]"
3,6300,"Cc1cc(N)nc(-c2cc3ncnc(N4CCN(C(=O)C5CO5)C(C#N)C4)c3cc2Cl)c1C(F)(F)F (stereo not shown) [Example 24, 4-[7-[6-amino-4-methyl-3-(trifluoromethyl)-2-pyridyl]-6-chloro-quinazolin-4-yl]-1-(oxirane-2-carbonyl)piperazine-2-carbonitrile]"
4,4200,"C=CC(=O)N1CCN(c2ncnc3cc(-c4nc(N)ccc4C(F)(F)F)c(Cl)cc23)CC1C(F)(F)F (stereo not shown) [Example 25, 1-[4-[7-[6-amino-3-(trifluoromethyl)-2-pyridyl]-6-chloro-quinazolin-4-yl]-2-(trifluoromethyl)piperazin-1-yl]prop-2-en-1-one]"
5,140,"C=C(F)C(=O)N1CCN(c2ncnc3cc(-c4nc(N)cc(C)c4C(F)(F)F)c(Cl)cc23)CC1 [Example 26, 1-(4-[7-[6-amino-4-methyl-3-(trifluoromethyl)pyridin-2-yl]-6-chloroquinazolin-4-yl]piperazin-1-yl)-2-fluoroprop-2-en-1-one]"
6,140,"C=CC(=O)N1CCN(c2ncnc3c(F)c(-c4nc(N)cc5cccc(F)c45)c(Cl)cc23)CC1 [Example 27, 1-[4-[7-(3-amino-8-fluoro-1-isoquinolyl)-6-chloro-8-fluoro-quinazolin-4-yl]piperazin-1-yl]prop-2-en-1-one]"
7,830,"C=CC(=O)N1CCN(c2ncnc3cc(-c4nc(N)ccc4C(F)(F)F)c(C4CC4)cc23)CC1 [Example 29, 1-[4-[7-[6-amino-3-(trifluoromethyl)-2-pyridyl]-6-cyclopropyl-quinazolin-4-yl]piperazin-1-yl]prop-2-en-1-one]"
8,7800,"C=CC(=O)N1CCN(c2nc(C(F)(F)F)nc3cc(-c4nc(N)cc(C)c4C(F)(F)F)c(Cl)cc23)CC1 [Example 30, 1-(4-[7-[6-amino-4-methyl-3-(trifluoromethyl)pyridin-2-yl]-6-chloro-2-(trifluoromethyl)quinazolin-4-yl]piperazin-1-yl)prop-2-en-1-one]"
9,200,"C=CC(=O)N1CCN(c2nc(NC)nc3cc(-c4nc(N)cc(C)c4C(F)(F)F)c(Cl)cc23)CC1 [Example 31, 1-(4-[7-[6-amino-4-methyl-3-(trifluoromethyl)pyridin-2-yl]-6-chloro-2-(methylamino)quinazolin-4-yl]piperazin-1-yl)prop-2-en-1-one]"
10,200,"C=CC(=O)N1CCN(c2nc(C)nc3cc(-c4nc(N)cc(C)c4C(F)(F)F)c(Cl)cc23)CC1 [Example 32, 1-(4-[7-[6-amino-4-methyl-3-(trifluoromethyl)pyridin-2-yl]-6-chloro-2-methylquinazolin-4-yl]piperazin-1-yl)prop-2-en-1-one]"
11,2100,"C=CC(=O)N1CCN(c2ncnc3cc(-c4nc(N)cc(C(F)(F)F)c4C)c(Cl)cc23)CC1 [Example 33, 1-(4-[7-[6-amino-3-methyl-4-(trifluoromethyl)pyridin-2-yl]-6-chloroquinazolin-4-yl]piperazin-1-yl)prop-2-en-1-one]"
12,3400,"C=CC(=O)N1CCN(c2ncnc3cc(-c4nc(N)cc(C5CC5)c4C(F)(F)F)c(Cl)cc23)CC1 [Example 34, 1-(4-(7-(6-amino-4-cyclopropyl-3-(trifluoromethyl)pyridin-2-yl)-6-chloroquinazolin-4-yl)piperazin-1-yl)prop-2-en-1-one]"
13,450,"C=CC(=O)N1CCN(c2ncnc3cc(-c4nc(N)ccc4C(F)(F)F)c(Cl)cc23)CC1 [Example 35, 1-(4-[7-[6-amino-3-(trifluoromethyl)pyridin-2-yl]-6-chloroquinazolin-4-yl]piperazin-1-yl)prop-2-en-1-one]"
14,5500,"C=CC(=O)N1CCN(c2ncnc3cc(-c4nc(NC(=O)C5CC5)cc5ccccc45)c(Cl)cc23)CC1 [Example 36, N-(1-(4-(4-acryloylpiperazin-1-yl)-6-chloroquinazolin-7-yl)isoquinolin-3-yl)cyclopropanecarboxamide]"
15,10000,"C=CC(=O)N1CCN(c2ncnc3cc(-c4nc(NCC#N)cc5ccccc45)c(Cl)cc23)CC1 [Example 39, 2-[(1-[6-chloro-4-[4-(prop-2-enoyl)piperazin-1-yl]quinazolin-7-yl]isoquinolin-3-yl)amino]acetonitrile]"
16,1100,"C=CC(=O)N1CCN(c2ncnc3cc(-c4nc(N)ccc4OC(F)(F)F)c(Cl)cc23)CC1 [Example 40, 1-(4-[7-[6-amino-3-(trifluoromethoxy)pyridin-2-yl]-6-chloroquinazolin-4-yl]piperazin-1-yl)prop-2-en-1-one]"
17,16000,"C=CC(=O)N1CCN(c2ncnc3cc(-c4nc(N)ccc4C(F)F)c(Cl)cc23)CC1 [Example 41, 1-(4-[7-[6-amino-3-(difluoromethyl)pyridin-2-yl]-6-chloroquinazolin-4-yl]piperazin-1-yl)prop-2-en-1-one]"
18,62,"C=CC(=O)N1CCN(c2ncnc3cc(-c4nc(N)cc(C)c4C(F)(F)F)c(Cl)cc23)CC1 [Example 44, 1-(4-[7-[6-amino-4-methyl-3-(trifluoromethyl)pyridin-2-yl]-6-chloroquinazolin-4-yl]piperazin-1-yl)prop-2-en-1-one]"
19,2400,"C=CC(=O)N1CCN(c2nc(NCCN(C)C)nc3cc(-c4nc(N)ccc4C(F)(F)F)c(Cl)cc23)CC1 [Example 45, 1-(4-[7-[6-amino-3-(trifluoromethyl)pyridin-2-yl]-6-chloro-2-[[2-(dimethylamino)ethyl]amino]quinazolin-4-yl]piperazin-1-yl)prop-2-en-1-one]"
20,270,"C=C(F)C(=O)N1CCN(c2ncnc3cc(-c4nc(N)ccc4C(F)(F)F)c(Cl)cc23)C[C@@H]1C#N [Example 46b, (2R)-4-[7-[6-amino-3-(trifluoromethyl)pyridin-2-yl]-6-chloroquinazolin-4-yl]-1-(2-fluoroprop-2-enoyl)piperazine-2-carbonitrile]"
21,3900,"C=CC(=O)N1CCN(c2ncnc3cc(-c4nc(N)ccc4C4CC4)c(OC)cc23)CC1 [Example 47, 1-[4-[7-(6-amino-3-cyclopropylpyridin-2-yl)-6-methoxyquinazolin-4-yl]piperazin-1-yl]prop-2-en-1-one]"
22,250,"C=CC(=O)N1CCN(c2ncnc3cc(-c4nc(N)cc5ccc(F)cc45)c(Cl)cc23)CC1 [Example 49, 1-[4-[7-(3-amino-7-fluoroisoquinoline-1-yl)-6-chloroquinazolin-4-yl]piperazin-1-yl]prop-2-en-1-one]"
23,5300,"C=CC(=O)N1CC(c2ncnc3cc(-c4nc(N)ccc4C(F)(F)F)c(Cl)cc23)C1 [Example 50, 1-(3-[7-[6-amino-3-(trifluoromethyl)pyridin-2-yl]-6-chloroquinazolin-4-yl]azetidin-1-yl)prop-2-en-1-one]"
24,2800,"C=CC(=O)N1CCN(c2ncnc3cc(-c4nc(N)ccc4CC(F)(F)F)c(Cl)cc23)CC1 [Example 51, 1-[4-[7-[6-amino-3-(2,2,2-trifluoroethyl)-2-pyridyl]-6-chloro-quinazolin-4-yl]piperazin-1-yl]prop-2-en-1-one]"
25,86,"C=CC(=O)N1CCN(c2ncnc3cc(-c4nc(N)cc(CC)c4C(F)(F)F)c(Cl)cc23)CC1 [Example 52, 1-[4-[7-[6-amino-4-ethyl-3-(trifluoromethyl)-2-pyridyl]-6-chloro-quinazolin-4-yl]piperazin-1-yl]prop-2-en-1-one]"
26,3400,"C=CC(=O)N1CCN(c2ncnc3cc(-c4nc(NC)ccc4C(F)(F)F)c(Cl)cc23)CC1 [Example 53, 1-(4-[6-chloro-7-[6-(methylamino)-3-(trifluoromethyl)pyridin-2-yl]quinazolin-4-yl]piperazin-1-yl)prop-2-en-1-one]"
27,140,"C=CC(=O)N1CCN(c2ncnc3cc(-c4nc(N)ccc4C(F)(F)F)c(Cl)cc23)[C@@H](C)C1 [Example 54, 1-[(3S)-4-[7-[6-amino-3-(trifluoromethyl)pyridin-2-yl]-6-chloroquinazolin-4-yl]-3-methylpiperazin-1-yl]prop-2-en-1-one]"
28,26,"C=C(F)C(=O)N1CCN(c2nc(OC[C@@H]3CCCN3C)nc3cc(-c4nc(N)cc(C)c4C(F)(F)F)c(Cl)cc23)CC1CC#N (stereo partly drawn) [Example 55, 2-[4-[7-[6-amino-4-methyl-3-(trifluoromethyl)-2-pyridyl]-6-chloro-2-[[(2S)-1-methylpyrrolidin-2-yl]methoxy]quinazolin-4-yl]-1-(2-fluoroprop-2-enoyl)piperazin-2-yl]acetonitrile]"
